Laboratory results published in PMC3914206.

What was measured:
Format in all cases: binding
Settings in all cases: Compound Concentration 10 µM
panel of 442 kinases [1] = molecular target: T1, panel of 442 kinases (Homo sapiens, UniProt P06213)
T1 construct: purchased KINOMEscan
Text: (§1) We assessed the selectivity of members of this scaffold using the KINOMEscan methodology across a near comprehensive panel of 442 kinases [[18,27]].

panel of 442 kinases [2] = molecular target: T2, panel of 442 kinases (Homo sapiens, UniProt P08922)
T2 construct: purchased KINOMEscan
T2 sequence (P08922 28-2347): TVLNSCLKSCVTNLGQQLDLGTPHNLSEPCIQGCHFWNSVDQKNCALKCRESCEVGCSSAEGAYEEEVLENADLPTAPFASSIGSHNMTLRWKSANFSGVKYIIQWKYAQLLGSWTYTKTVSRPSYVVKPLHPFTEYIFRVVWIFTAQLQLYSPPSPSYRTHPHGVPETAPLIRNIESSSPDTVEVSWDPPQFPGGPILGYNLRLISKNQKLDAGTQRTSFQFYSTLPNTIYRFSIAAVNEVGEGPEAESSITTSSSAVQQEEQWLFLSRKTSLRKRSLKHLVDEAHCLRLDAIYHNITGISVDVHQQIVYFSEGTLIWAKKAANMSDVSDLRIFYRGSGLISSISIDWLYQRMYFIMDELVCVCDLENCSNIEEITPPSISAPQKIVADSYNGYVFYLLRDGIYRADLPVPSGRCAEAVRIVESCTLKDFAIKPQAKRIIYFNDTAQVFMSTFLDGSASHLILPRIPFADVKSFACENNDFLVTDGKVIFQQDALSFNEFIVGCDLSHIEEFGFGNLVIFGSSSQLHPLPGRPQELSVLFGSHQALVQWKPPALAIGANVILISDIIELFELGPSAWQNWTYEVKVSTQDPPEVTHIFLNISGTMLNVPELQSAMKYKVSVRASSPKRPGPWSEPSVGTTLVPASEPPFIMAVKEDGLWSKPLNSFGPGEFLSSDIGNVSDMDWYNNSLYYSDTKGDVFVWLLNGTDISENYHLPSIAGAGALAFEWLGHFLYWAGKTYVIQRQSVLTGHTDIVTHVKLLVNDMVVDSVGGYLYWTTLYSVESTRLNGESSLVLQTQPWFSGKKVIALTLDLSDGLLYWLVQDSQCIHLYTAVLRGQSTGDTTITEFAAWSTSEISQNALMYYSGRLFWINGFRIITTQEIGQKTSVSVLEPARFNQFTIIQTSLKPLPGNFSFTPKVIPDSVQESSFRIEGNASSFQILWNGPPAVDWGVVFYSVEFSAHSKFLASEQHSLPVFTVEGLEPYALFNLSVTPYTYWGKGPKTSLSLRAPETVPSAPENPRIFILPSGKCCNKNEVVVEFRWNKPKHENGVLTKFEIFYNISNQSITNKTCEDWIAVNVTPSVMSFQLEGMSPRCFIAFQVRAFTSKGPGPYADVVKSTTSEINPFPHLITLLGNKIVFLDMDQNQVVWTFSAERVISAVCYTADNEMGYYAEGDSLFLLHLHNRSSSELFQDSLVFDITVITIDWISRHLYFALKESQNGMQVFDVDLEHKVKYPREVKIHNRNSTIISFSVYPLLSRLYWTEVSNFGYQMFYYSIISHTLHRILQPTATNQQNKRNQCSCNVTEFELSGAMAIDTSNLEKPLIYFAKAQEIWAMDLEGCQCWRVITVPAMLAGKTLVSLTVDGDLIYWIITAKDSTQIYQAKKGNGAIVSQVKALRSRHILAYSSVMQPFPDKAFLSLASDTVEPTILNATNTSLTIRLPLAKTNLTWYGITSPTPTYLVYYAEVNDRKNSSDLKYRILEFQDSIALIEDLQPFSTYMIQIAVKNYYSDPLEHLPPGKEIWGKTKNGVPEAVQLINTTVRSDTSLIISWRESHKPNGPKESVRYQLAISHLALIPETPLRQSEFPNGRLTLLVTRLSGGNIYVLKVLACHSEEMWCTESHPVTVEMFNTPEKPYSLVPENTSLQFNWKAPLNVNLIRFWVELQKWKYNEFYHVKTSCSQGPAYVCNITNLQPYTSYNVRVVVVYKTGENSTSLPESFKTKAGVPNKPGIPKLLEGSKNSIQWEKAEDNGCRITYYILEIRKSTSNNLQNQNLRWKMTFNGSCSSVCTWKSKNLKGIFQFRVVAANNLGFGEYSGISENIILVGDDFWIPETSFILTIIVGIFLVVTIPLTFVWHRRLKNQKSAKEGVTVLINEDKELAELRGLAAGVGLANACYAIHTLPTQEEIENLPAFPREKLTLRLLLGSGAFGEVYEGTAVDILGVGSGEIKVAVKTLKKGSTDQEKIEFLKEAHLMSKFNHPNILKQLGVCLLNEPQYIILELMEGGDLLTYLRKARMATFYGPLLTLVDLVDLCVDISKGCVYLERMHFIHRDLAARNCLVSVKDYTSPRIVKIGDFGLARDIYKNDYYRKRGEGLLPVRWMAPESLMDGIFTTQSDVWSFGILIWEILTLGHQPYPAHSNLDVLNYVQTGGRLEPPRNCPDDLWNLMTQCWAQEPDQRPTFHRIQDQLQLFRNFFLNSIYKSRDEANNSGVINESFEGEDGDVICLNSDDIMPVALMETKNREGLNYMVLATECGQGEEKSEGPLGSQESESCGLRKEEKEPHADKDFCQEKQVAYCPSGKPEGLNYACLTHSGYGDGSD
Text: as §1

panel of 442 kinases [3] = molecular target: T3, panel of 442 kinases (Homo sapiens, UniProt P16591)
T3 construct: purchased KINOMEscan
T3 sequence (P16591 whole entry): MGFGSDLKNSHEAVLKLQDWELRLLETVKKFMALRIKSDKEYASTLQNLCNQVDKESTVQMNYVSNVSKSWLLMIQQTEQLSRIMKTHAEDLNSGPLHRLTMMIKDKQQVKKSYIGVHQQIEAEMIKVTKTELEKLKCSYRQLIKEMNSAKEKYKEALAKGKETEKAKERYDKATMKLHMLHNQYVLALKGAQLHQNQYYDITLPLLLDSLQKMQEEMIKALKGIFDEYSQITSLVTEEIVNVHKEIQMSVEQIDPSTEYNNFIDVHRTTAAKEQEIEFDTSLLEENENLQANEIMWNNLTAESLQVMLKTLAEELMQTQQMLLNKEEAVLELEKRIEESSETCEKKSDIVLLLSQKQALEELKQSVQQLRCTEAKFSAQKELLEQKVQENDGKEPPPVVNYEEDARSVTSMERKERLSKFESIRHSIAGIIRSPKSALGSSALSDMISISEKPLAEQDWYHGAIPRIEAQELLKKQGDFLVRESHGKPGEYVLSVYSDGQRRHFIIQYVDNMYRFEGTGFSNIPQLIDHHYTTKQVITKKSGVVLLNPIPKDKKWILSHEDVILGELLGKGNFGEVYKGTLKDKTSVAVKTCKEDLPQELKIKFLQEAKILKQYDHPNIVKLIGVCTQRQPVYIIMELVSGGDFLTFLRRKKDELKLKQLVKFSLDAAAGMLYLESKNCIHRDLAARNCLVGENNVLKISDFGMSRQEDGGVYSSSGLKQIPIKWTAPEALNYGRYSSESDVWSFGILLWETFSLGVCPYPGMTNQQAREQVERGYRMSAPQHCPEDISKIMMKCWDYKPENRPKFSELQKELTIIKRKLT
Text: as §1

T1 sequence (P06213 28-1382): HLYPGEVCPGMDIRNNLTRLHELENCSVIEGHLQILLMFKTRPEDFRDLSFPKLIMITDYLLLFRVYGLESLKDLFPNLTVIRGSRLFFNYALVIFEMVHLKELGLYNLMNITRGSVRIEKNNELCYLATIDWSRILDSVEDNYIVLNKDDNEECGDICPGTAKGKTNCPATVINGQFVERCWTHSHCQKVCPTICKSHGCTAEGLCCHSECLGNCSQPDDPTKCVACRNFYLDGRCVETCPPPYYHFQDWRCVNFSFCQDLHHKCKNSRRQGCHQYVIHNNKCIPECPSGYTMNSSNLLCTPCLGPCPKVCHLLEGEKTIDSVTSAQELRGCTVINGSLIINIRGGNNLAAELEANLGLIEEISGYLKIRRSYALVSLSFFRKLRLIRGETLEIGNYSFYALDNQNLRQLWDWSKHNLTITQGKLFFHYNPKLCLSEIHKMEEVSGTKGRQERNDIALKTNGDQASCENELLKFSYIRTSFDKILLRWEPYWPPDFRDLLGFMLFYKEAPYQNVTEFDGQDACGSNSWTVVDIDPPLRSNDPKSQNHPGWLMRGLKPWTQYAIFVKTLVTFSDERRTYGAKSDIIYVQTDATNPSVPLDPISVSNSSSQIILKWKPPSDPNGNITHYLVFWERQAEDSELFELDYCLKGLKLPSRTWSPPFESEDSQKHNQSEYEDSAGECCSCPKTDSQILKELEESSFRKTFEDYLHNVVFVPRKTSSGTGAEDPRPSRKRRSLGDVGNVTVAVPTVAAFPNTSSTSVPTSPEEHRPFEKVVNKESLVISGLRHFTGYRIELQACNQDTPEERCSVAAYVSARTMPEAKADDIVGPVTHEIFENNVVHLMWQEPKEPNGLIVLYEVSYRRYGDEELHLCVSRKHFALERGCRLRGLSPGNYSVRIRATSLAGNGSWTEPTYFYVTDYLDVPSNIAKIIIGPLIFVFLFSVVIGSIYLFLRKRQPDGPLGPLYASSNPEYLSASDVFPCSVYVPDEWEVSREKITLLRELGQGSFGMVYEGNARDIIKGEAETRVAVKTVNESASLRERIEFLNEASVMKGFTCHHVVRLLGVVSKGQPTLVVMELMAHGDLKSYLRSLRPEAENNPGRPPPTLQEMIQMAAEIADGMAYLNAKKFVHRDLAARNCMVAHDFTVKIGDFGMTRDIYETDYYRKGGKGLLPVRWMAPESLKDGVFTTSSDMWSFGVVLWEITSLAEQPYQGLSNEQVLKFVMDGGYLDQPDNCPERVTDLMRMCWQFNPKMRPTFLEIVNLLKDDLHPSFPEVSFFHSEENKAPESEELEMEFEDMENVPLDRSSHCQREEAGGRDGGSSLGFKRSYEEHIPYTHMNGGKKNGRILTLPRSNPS

SMILES	KINOMEscan: INSR (panel of 442 kinases [1])	KINOMEscan: ROS1 (panel of 442 kinases [2])	KINOMEscan: FER (panel of 442 kinases [3])
CCOc1cc(C(=O)N2CCC(N3CCN(C)CC3)CC2)ccc1Nc1ncc2c(n1)N(C1CCCC1)c1ccccc1C(=O)N2C [Compound 26]	100	20	96
COc1cc(C(=O)N2CCC(N3CCN(C)CC3)CC2)ccc1Nc1ncc2c(n1)N(C1CCCC1)c1ccccc1C(=O)N2C [Compound 25, 11-cyclopentyl-2-((2-methoxy-4-(4-(4-methylpiperazin-1-yl)piperidine-1-carbonyl)phenyl)amino)-5-methyl-5H-benzo[e]pyrimido[5,4-b][1,4]diazepin-6(11H)-one]	88	3.4	38
COc1cc(C(=O)N2CCC(N3CCN(C)CC3)CC2)ccc1Nc1ncc2c(n1)N1CCc3cccc(c31)C(=O)N2C [Compound 24]	78	24	64
COc1cc(C(=O)N2CCC(N3CCN(C)CC3)CC2)ccc1Nc1ncc2c(n1)N(C)c1ccccc1C(=O)N2C [15 (LRRK2-IN-1)]	84	12	51
